Measurements: US9273033B2, “Substituted pyridone derivatives as PDE10 inhibitors” (Merck Sharp & Dohme Corp., priority 2012, dated 2016)

Biological target: human PDE10A2 (Homo sapiens (Human), UniProt Q9Y233)
Test: PDE10 fluorescence polarization (IMAP FP) inhibition assay
Type: biochemical
Conditions: human PDE10A2, FAM-labeled cAMP substrate, read-out: PDE10A Ki
Description: The activity of the compounds in accordance with the present invention as PDE10 inhibitors may be readily determined without undue experimentation using a fluorescence polarization (FP) methodology that is well known in the art (Huang, W., et al., J. Biomol Screen, 2002, 7: 215).
In a typical experiment the PDE10 inhibitory activity of the compounds of the present invention was determined in accordance with the following experimental method. PDE10A2 was amplified from human fetal brain cDNA (Clontech, Mountain View, Calif.) using a forward primer corresponding to nucleotides 56-77 of human PDE10A2 (Accession No. AF127480, Genbank Identifier 4894716), containing a Kozak consensus sequence, and a reverse primer corresponding to nucleotides 2406-2413 of human PDE10A2 (Accession No. AF127480, Genbank Identifier 4894716). Amplification with Easy-A polymerase (Stratagene, La Jolla, Calif.) was 95° C. for 2 minutes followed by thirty three cycles of 95° C. for 40 seconds, 55° C. for 30 seconds, and 72° C. for 2 minutes 48 seconds. Final extension was 72° C. for 7 minutes. The PCR product was TA cloned into pcDNA3.2-TOPO (Invitrogen, Carlsbad, Calif.) according to standard protocol. AD293 cells with 70-80% confluency were transiently transfected with human PDE10A2/pcDNA3.2-TOPO using Lipofectamine 2000 according to manufacturer specifications (Invitrogen, Carlsbad, Calif.). Cells were harvested 48 hours post-transfection and lysed by sonication (setting 3, 10×5 sec pulses) in a buffer containing 20 mM HEPES, 1 mM EDTA and protease inhibitor cocktail (Roche). Lysate was collected by centrifugation at 75,000×g for 20 minutes. Supernatant containing the cytoplasmic fraction was used for evaluation of PDE10A2 activity. The fluorescence polarization assay for cyclic nucleotide phosphodiesterases was performed using an IMAP® FP kit supplied by Molecular Devices, Sunnyvale, Calif. (product # R8139). IMAPU technology has been applied previously to phosphodiesterase assays (Huang, W., et al., J. Biomol Screen, 2002, 7: 215). Assays were performed at room temperature in 384-well microtiter plates with an incubation volume of 20.2 μL. Solutions of test compounds were prepared in DMSO and serially diluted with DMSO to yield 8 μL of each of 10 solutions differing by 3-fold in concentration, at 32 serial dilutions per plate. 100% inhibition is determined using a known PDE10 inhibitor, which can be any compound that is present at 5,000 times its Ki value in the assay described as follows, such as papaverine (see Siuciak, et al. Neuropharmacology (2006) 51:386-396; Becker, et al. Behav Brain Res (2008) 186(2):155-60; Threlfell, et al., J Pharmacol Exp Ther (2009) 328(3):785-795), 2-{4-[pyridin-4-yl-1-(2,2,2-trifluoroethyl)-1H-pyrazol-3-yl]phenoxymethyl}quinoline succinic acid or 2-[4-(1-methyl-4-pyridin-4-yl-1H-pyrazol-3-yl)-phenoxymethyl]quinoline succinic acid (see Schmidt, et al. J Pharmacol Exp Ther (2008) 325:681-690; Threlfell, et al., J Pharmacol Exp Ther (2009) 328(3): 785-795). 0% of inhibition is determined by using DMSO (1% final concentrations).
A Labcyte Echo 555 (Labcyte, Sunnyvale, Calif.) is used to dispense 200 nL from each well of the titration plate to the 384 well assay plate. A solution of enzyme (1/1600 dilution from aliquots; sufficient to produce 20% substrate conversion) and a separate solution of FAM-labeled cAMP PDE from Molecular Devices (product # R7506), at a final concentration of 50 nM are made in the assay buffer (10 mM Tris HCl, pH 7.2, 10 mM MgCl2, 0.05% NaN3 0.01% Tween-20, and 1 mM DTT). The enzyme and the substrate are then added to the assay plates in two consecutive additions of 10 μL, and then shaken to mix. The reaction is allowed to proceed at room temperature for 30 minutes. A binding solution is then made from the kit components, comprised of 80% Solution A, 20% Solution B and binding reagent at a volume of 1/600 the total binding solution.

Chain of human PDE10A2 (Q9Y233 267-1055): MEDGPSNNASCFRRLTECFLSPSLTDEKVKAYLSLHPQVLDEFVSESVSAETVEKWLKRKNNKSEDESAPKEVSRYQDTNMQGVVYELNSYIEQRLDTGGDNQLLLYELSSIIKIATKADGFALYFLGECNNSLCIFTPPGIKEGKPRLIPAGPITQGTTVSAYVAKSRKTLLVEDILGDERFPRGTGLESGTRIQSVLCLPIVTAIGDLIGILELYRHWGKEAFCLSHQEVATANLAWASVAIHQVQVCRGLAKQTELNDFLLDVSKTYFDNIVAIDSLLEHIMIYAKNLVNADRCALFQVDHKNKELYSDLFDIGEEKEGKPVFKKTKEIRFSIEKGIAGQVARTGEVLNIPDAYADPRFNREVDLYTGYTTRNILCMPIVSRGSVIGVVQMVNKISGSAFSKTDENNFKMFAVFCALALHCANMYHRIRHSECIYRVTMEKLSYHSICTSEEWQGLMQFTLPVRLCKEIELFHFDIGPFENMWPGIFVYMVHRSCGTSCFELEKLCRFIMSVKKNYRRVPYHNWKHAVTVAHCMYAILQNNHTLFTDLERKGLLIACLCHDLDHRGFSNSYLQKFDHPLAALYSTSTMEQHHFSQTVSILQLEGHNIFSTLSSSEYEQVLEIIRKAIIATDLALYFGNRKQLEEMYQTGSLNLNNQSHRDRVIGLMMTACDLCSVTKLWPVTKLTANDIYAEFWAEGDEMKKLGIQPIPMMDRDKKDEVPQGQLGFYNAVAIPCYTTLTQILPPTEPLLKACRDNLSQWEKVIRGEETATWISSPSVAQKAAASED

**Q.** Which Ki does the source give for Cc1ncc(-c2ccc(=O)n(C)c2)c(OC[C@H]2C[C@@H]2c2ccc3ccccc3n2)n1 [Example 29, 1-methyl-5-(2-methyl-4-(((1S,2S)-2-(quinolin-2-yl)cyclopropyl)methoxy)pyrimidin-5-yl)pyridin-2(1H)-one] here?
**A.** The Ki was 0.052 nM.

**Q.** For COc1ccc([C@H]2C[C@@H]2COc2nc(C)ncc2-c2ccn(CC#N)c(=O)c2)nc1 [Example 111, 2-(4-(4-(((1S,2S)-2-(5-methoxypyridin-2-yl)cyclopropyl)methoxy)-2-methylpyrimidin-5-yl)-2-oxopyridin-1(2H)-yl)acetonitrile], which Ki is on record?
**A.** Its Ki is 0.441 nM.

**Q.** Which Ki does the source give for COc1ccc([C@H]2C[C@@H]2COc2nc(C)ncc2-c2cc(C)c(=O)n(C)c2)nc1 [Example 38, 5-(4-(((1S,2S)-2-(5-methoxypyridin-2-yl)cyclopropyl)methoxy)-2-methylpyrimidin-5-yl)-1,3-dimethylpyridin-2(1H)-one] here?
**A.** The Ki was 0.727 nM.

**Q.** Cc1ncc(-c2ccn(C)c(=O)c2)c(OC[C@H]2C[C@@H]2c2ccc(Cl)cn2)n1 [Example 107, 4-(4-(((1S,2S)-2-(5-chloropyridin-2-yl)cyclopropyl)methoxy)-2-methylpyrimidin-5-yl)-1-methylpyridin-2(1H)-one] was tested. Which Ki did it give?
**A.** Its Ki is 14.7 nM.

**Q.** Which Ki does the source give for [2H]C([2H])([2H])n1cc(-c2cnc(C)nc2OC[C@H]2C[C@@H]2c2ccc(OC)cn2)ccc1=O [Example 51, 5-(4-(((1S,2S)-2-(5-methoxypyridin-2-yl)cyclopropyl)methoxy)-2-methylpyrimidin-5-yl)-1-methylpyridin-2(1H)-one] here?
**A.** Its Ki is 0.946 nM.

**Q.** Which Ki does the source give for COc1ccc([C@H]2C[C@@H]2COc2nc(C)ncc2-c2cc(C)n(C)c(=O)c2)nc1 [Example 113, 4-(4-(((1S,2S)-2-(5-methoxypyridin-2-yl)cyclopropyl)methoxy)-2-methylpyrimidin-5-yl)-1,6-dimethylpyridin-2(1H)-one] here?
**A.** The Ki was 0.8 nM.

**Q.** How did the Ki turn out when COCCn1ccc(-c2cnc(C)nc2OC[C@H]2C[C@@H]2c2ccc(OC)cn2)cc1=O [Example 118, 1-(2-methoxyethyl)-4-(4-(((1S,2S)-2-(5-methoxypyridin-2-yl)cyclopropyl)methoxy)-2-methylpyrimidin-5-yl)pyridin-2(1H)-one] was run?
**A.** The Ki was 0.553 nM.

**Q.** For Cc1ncc(-c2ccc(=O)n(C(F)F)c2)c(OC[C@H]2C[C@@H]2c2ccc3ccccc3n2)n1 [Example 11, 1-(difluoromethyl)-5-(2-methyl-4-(((1S,2S)-2-(quinolin-2-yl)cyclopropyl)methoxy)pyrimidin-5-yl)pyridin-2(1H)-one], which Ki is on record?
**A.** The Ki was 0.048 nM.

**Q.** For COc1ccc([C@H]2C[C@@H]2COc2nc(C)ncc2-c2cc(=O)n(C)cc2C#N)nc1 [Example 89, 4-(4-(((1S,2S)-2-(5-methoxypyridin-2-yl)cyclopropyl)methoxy)-2-methylpyrimidin-5-yl)-1-methyl-6-oxo-1,6-dihydropyridine-3-carbonitrile], which Ki is on record?
**A.** The Ki was 7.39 nM.

**Q.** How did the Ki turn out when Cc1ncc(-c2ccn(C)c(=O)c2)c(OC[C@@H]2C[C@H]2c2ccc(Cl)cn2)n1 [Example 103, 4-(4-(((1R,2R)-2-(5-chloropyridin-2-yl)cyclopropyl)methoxy)-2-methylpyrimidin-5-yl)-1-methylpyridin-2(1H)-one] was run?
**A.** The Ki was 100 nM.

**Q.** With COc1cc(-c2cnc(C)nc2OC[C@H]2C[C@@H]2c2ccc3ccccc3n2)cn(C)c1=O [Example 56, 3-methoxy-1-methyl-5-(2-methyl-4-(((1S,2S)-2-(quinolin-2-yl)cyclopropyl)methoxy)pyrimidin-5-yl)pyridin-2(1H)-one] as the compound, how does the Ki read?
**A.** The Ki was 0.004 nM.

**Q.** With COC(=O)Cn1cc(-c2cnc(C)nc2OC[C@H]2C[C@@H]2c2ccc(OC)cn2)ccc1=O [Example 47, methyl 2-(5-(4-(((1S,2S)-2-(5-methoxypyridin-2-yl)cyclopropyl)methoxy)-2-methylpyrimidin-5-yl)-2-oxopyridin-1(2H)-yl)acetate] as the compound, how does the Ki read?
**A.** Its Ki is 3.65 nM.

**Q.** For COCCn1ccc(-c2cnc(C)nc2OC[C@H]2C[C@@H]2c2ccc(C)cn2)cc1=O [Example 85, 1-(2-methoxyethyl)-4-(2-methyl-4-(((1S,2S)-2-(5-methylpyridin-2-yl)cyclopropyl)methoxy)pyrimidin-5-yl)pyridin-2(1H)-one], which Ki is on record?
**A.** The Ki was 0.439 nM.

**Q.** How did the Ki turn out when Cc1ccc([C@H]2C[C@@H]2COc2nc(C)ncc2-c2ccn(C)c(=O)c2)nc1 [Example 78, 1-methyl-4-(2-methyl-4-(((1S,2S)-2-(5-methylpyridin-2-yl)cyclopropyl)methoxy)pyrimidin-5-yl)pyridin-2(1H)-one] was run?
**A.** The Ki was 1.73 nM.

**Q.** Which Ki does the source give for Cc1ccc([C@H]2C[C@@H]2COc2nc(C)ncc2-c2cc(C)c(=O)n(C)c2)nc1 [Example 40, 1,3-dimethyl-5-(2-methyl-4-(((1S,2S)-2-(5-methylpyridin-2-yl)cyclopropyl)methoxy)pyrimidin-5-yl)pyridin-2(1H)-one] here?
**A.** The Ki was 0.409 nM.

**Q.** COn1cc(-c2cnc(C)nc2OC[C@H]2C[C@@H]2c2ccc3ccccc3n2)ccc1=O [Example 12, 1-methoxy-5-(2-methyl-4-(((1S,2S)-2-(quinolin-2-yl)cyclopropyl)methoxy)pyrimidin-5-yl)pyridin-2(1H)-one] was tested. Which Ki did it give?
**A.** The Ki was 0.053 nM.

**Q.** With CCn1c(C)c(-c2cnc(C)nc2OC[C@H]2C[C@@H]2c2ccc(OC)cn2)ccc1=O [Example 33, 1-ethyl-5-(4-(((1S,2S)-2-(5-methoxypyridin-2-yl)cyclopropyl)methoxy)-2-methylpyrimidin-5-yl)-6-methylpyridin-2(1H)-one] as the compound, how does the Ki read?
**A.** Its Ki is 1.78 nM.

**Q.** Which Ki does the source give for Cc1ncc(-c2cc(C)n(C)c(=O)c2)c(OC[C@H]2C[C@@H]2c2ccc3ccccc3n2)n1 [Example 97, 1,6-dimethyl-4-(2-methyl-4-(((1S,2S)-2-(quinolin-2-yl)cyclopropyl)methoxy)pyrimidin-5-yl)pyridin-2(1H)-one] here?
**A.** Its Ki is 0.041 nM.

**Q.** Which Ki does the source give for Cc1ncc(-c2cc(=O)n(C)cc2C)c(OC[C@H]2C[C@@H]2c2ccc3ccccc3n2)n1 [Example 76, 1,5-dimethyl-4-(2-methyl-4-(((1S,2S)-2-(quinolin-2-yl)cyclopropyl)methoxy)pyrimidin-5-yl)pyridin-2(1H)-one] here?
**A.** Its Ki is 0.035 nM.

**Q.** For COc1ccc([C@H]2C[C@@H]2COc2nc(C)ncc2-c2ccn(C)c(=O)c2SC)nc1 [Example 115, 4-(4-(((1S,2S)-2-(5-methoxypyridin-2-yl)cyclopropyl)methoxy)-2-methylpyrimidin-5-yl)-1-methyl-3-(methylthio)pyridin-2(1H)-one], which Ki is on record?
**A.** Its Ki is 18 nM.

**Q.** COc1cc(-c2cnc(C)nc2OC[C@H]2C[C@@H]2c2ccc3c(n2)CCC3)cn(C)c1=O [Example 54, 5-(4-(((1S,2S)-2-(6,7-dihydro-5H-cyclopenta[b]pyridin-2-yl)cyclopropyl)methoxy)-2-methylpyrimidin-5-yl)-3-methoxy-1-methylpyridin-2(1H)-one] was tested. Which Ki did it give?
**A.** Its Ki is 0.045 nM.

**Q.** With Cc1ccc([C@H]2C[C@@H]2COc2nc(C)ncc2-c2ccc(=O)n(C(C)C)c2C)nc1 [Example 37, 1-isopropyl-6-methyl-5-(2-methyl-4-(((1S,2S)-2-(5-methylpyridin-2-yl)cyclopropyl)methoxy)pyrimidin-5-yl)pyridin-2(1H)-one] as the compound, how does the Ki read?
**A.** The Ki was 4.27 nM.

**Q.** Cc1ncc(-c2cc(=O)n(C)cc2C)c(OC[C@H]2C[C@@H]2c2ccc3c(n2)CCC3)n1 [Example 131, 4-(4-(((1S,2S)-2-(6,7-dihydro-5H-cyclopenta[b]pyridin-2-yl)cyclopropyl)methoxy)-2-methylpyrimidin-5-yl)-l,5-dimethylpyridin-2(1H)-one] was tested. Which Ki did it give?
**A.** The Ki was 0.033 nM.
